# Assays:
# human mononuclear cells = assay: Mixed leukocyte culture (MLC) reaction; format: cell-based
# Protocol: T and B lymphocytes from normal human donors were incubated for 30 minutes at various dose levels of the compounds indicated. The lymphocytes were added in triplicate wells in gentamicin and phytohemagglutinin (PHA) (a T cell mitogen), pokeweed mitogen (PWM) (a B cell mitogen) and allogeneic mononuclear cells (mixed leukocyte cultures; MLC) or media containing the above additives. The lymphocyte blastogenesis assay is described in detail below.
# Mixed leukocyte culture (MLC) reactions may be used to evaluate the ability of human mononuclear cells to recognize and immunologically react to human histocompatibility antigen (measurement of the ability of the cells to mount a primary immune response to an antigen). Cultures of one set of human mononuclear cells were reacted with mononuclear cells from an unrelated donor in lymphocyte blastogenesis assays and the proliferation of the first set of cells was quantitated. The results are presented in Charts la(e) (v) and la(e) (vi) (Figs. 5 and 6). Again, as with lymphocyte blastogenesis with mitogens, the MLC was run in replicates of three and a mean value obtained.
# • 1. Mononuclear cells are separated from whole blood by differential centrifugation using a synthetic separation medium, or are thawed from a cryopreserved preparation. The cells are washed and resuspended in media (RPMI - 1640, L-Glutamine 2mM, Herpes Buffer 25mM, Gentamicin 50 ug/ml, Human AB Serum-heat inactivated (56°, 30°) 20%). • 2. A viable cell count is determined. • 3. Cell concentration is adjusted to 2 x 10^6 /ml in media. • 4. The cell suspension is added to wells of a 96-well flat bottom plate in 0.1 ml aliquots (2 x 10^5 cells). • 5. The selected mitogens and/or antigens (in media without serum) are added to the cells in the wells also in 0.1 ml aliquots. • 6. The cultures are incubated for 3-7 days (depending upon the mitogen or antigen) at 37° C in a humidified 5% C02 atmosphere. • 7. […] The vials are counted in a liquid scintillation counter for one minute where the amount of incorporated ^3HTdR is determined.
# [1] = system: T.b. brucei, T.b. gambiense and T.b. rhodesiense; assay: African trypanosomiasis mouse model, in-vivo
# Protocol: Primary screening for new trypanocides has made extensive use of rodent systems, in which host survival time is a simple indicator of drug activity. In-vitro screens have used a variety of trypomastigote types (see Table 3, below). […] Most early in-vitro screens employed a short test in which bloodstream trypomastigotes were isolated from an infected rodent and maintained for up to 24 h in a simple drug-containing media. Two significant modifications of this technique include maintaining isolated bloodstream trypomastigotes in drug-containing media for 3-4 hours at 37° C in micro-titre plates and their subsequent viability assessed by the uptake of radiolabelled precursors or motility and infectivity to mice.
# In-vitro and in-vivo models were used to test activities of a selection of many compounds. Those activities are summarized in Tables 1-3, showing variation between systems and species. Activities measured in the MP mo and HM mo models have shown the best correlation with results obtained in hamster and mouse models.
# HIV-1 [2] = assay: HIV-1 production from patients' lymphocytes cocultured with PHA-stimulated normal PBL, p24 antigen capture; format: cell-based; conditions: 3.75 µM or higher; Figure 14
# Protocol: HIV-1 production from an AIDS patients' lymphocytes was carried out as described previously. Briefly, 10x10^6 patients' lymphocytes were cocultured with 5x10^6 PHA-stimulated normal PBL in RPMI 1640 medium containing 20% FBS, 5% interleukin 2 (Cellular Products, Buffalo, NY) and various concentrations of IPA. The culture was continued for 4 weeks. The culture was fed twice a week with 2-3x10^6 PHA-stimulated normal PBL. Culture medium was withdrawn twice a week and tested for the presence of HIV by the antigem capture test. Culture medium was replaced with new medium with or without drug at 3-4 days intervals.
# A study of IPA inhibition of HIV-1 production from lymphocytes of a HIV-1 seropositive patient was carried out. For this purpose, lymphocytes from an AIDS patient and an asymtomatic patient were cocultured with PHA stimulated PBL in the presence or absence of IPA. Results shown in Figure 14 indicate that IPA inhibited HIV-1 production in a dose dependent manner. […] In contrast, HIV-1 was detected in untreated cultures as early as 7 days following cocultivation.
# [3] = Case study two: HIV positive patient, IPA orally; format: in vivo, human
# Protocol: In another case study, […], a homosexual person, was diagnosed HIV positive in June, 1986. […] was also diagnosed as having hepatitis at that time. Beginning on May 7, 1990, IPA was administered orally to […] On May 7, 1990, […] was experiencing (1) weight loss, (2) night sweats, (3) thrush, (4) fungal infections, (5) pneumonia, (6) diarrhea, and (7) hairy leukoplakia.
# Prior to treatment with IPA, V.T. had experienced diarrhea and night sweats for the previous six weeks. […] […] […] As of July 26, 1990, V.T.'s helper/suppressor ration was 0.93.
# HIV-1 [4] = assay: In vitro HIV-1 infection of H9 cells, HIV-1 P24 antigen capture test; format: cell-based; conditions: doses of 3.75 µM or higher, Figure 13
# Protocol: In vitro infection of H9 cells was carried out as described previously. Briefly, 5x10^6 H9 cells were treated with DEAE-dextran (25 µg/mt) for 20 min. Cells were then infected with 1 ml of cell free HIV-1 (1 X1 05 RT unit) for 1 hr at 37° C. Cells were then washed and incubated for 12 days in the absence or presence of various concentrations of IPA. Every 3-4 days, the medium was replaced with fresh medium containing appropriate concentrations of drug. At various days following infection, the presence of HIV-1 in the supernatant was monitored by measuring HIV-1 P24 using the antigen capture test (DuPont@, Wilmington, DE).
# An investigation of the effect of IPA on in-vitro HIV-1 infection of H9 cells, a T cell line, was performed. The drug was added following 1 hr adsorption of the virus, and was maintained in the culture medium throughout the incubation period.
# HIV-1 [5] = assay: Experiment la(1): HIV-1 infected 81-66-45 cells; format: cell-based
structure (smiles),measurement,setting,value
"CC(C)=CCNc1ncnc2c1ncn2[C@@H]1O[C@H](CO)[C@@H](O)[C@H]1O [IPA, N^6-(Δ^2-isopentenyl) adenosine]",reduction in MLC reactivity,human mononuclear cells; 1 µM,50%
same,MLC reactivity,human mononuclear cells; 10 µM,No effect
same,MLC reactivity,human mononuclear cells; 100 u.M,slight increase
same,"activity, mouse model",[1],+ +
same,Virus production (HIV-1 p24 antigen capture assay),HIV-1 [2],completely blocked
same,toxic side effects,[3],no permanent toxic side effects
same,weight stabilized at,[3],133 lbs
same,hairy leukoplakia,[3]; IPA orally,complete remission
same,helper/suppressor ratio,"[3]; July 26, 1990",0.93
same,weight,"[3]; June 11, 1990, 119 lbs on May 7, 1990 (start of IPA)",132 lbs
same,helper/suppressor ratio,"[3]; June 21, 1990, 0.53 on May 7, 1990",0.65
same,T4 count,"[3]; June 21, 1990, 207 on May 7, 1990",330
same,time in which diarrhea and night sweats cleared,"[3]; after the beginning of the treatment, symptoms for the previous six weeks",≤ 48 h
same,weight gain,[3]; over the first month of treatment,about 0.5 lbs per day
same,inhibition of HIV-1 production,HIV-1 [4],more than five log inhibition
same,IC50,"HIV-1 [5]; Human immunodeficiency virus 1, from Figures 16 and 17, read-out: IC50 - The concentration of IPA which inhibits the replication of HIV-1 by 50%",6 µM
same,IC90,"HIV-1 [5]; Human immunodeficiency virus 1, from Figures 16 and 17, read-out: IC90 - The concentration of IPA which inhibits the replication of HIV-1 by 90%",10 µM

# Source: patent publication EP0462621A2, “Use of particular compounds for manufacture of pharmaceutical formulations for treatment against various parasites, mycoplasmas, other indications and other infections” (Prendergast, Patrick Thomas, priority 1990, dated 1991)
